≈ marks a conversion by molar mass, not a printed value.
Test system: Mycobacterium tuberculosis variant bovis
Test: Antimycobacterial activity against Mycobacterium bovis
Assay type: functional

SMILES | MIC [mg/L]
CC(C)COC(=O)C1C(=O)Oc2ccccc2C1C(=O)NC1CCCCC1 (stereo not drawn) | 15.6 (≈ 41.8 µM)
COC(=O)C1C(=O)Oc2ccc(Br)cc2C1C(=O)NC1CCCCC1 (stereo not drawn) | 15.6 (≈ 38 µM)
O=C(OCc1ccc(F)cc1)C1C(=O)Oc2ccc(Br)cc2C1C(=O)NC1CCCCC1 (stereo not drawn) | 15.6 (≈ 30.9 µM)

From ChEMBL document CHEMBL3588753, “Recent progress in the drug development of coumarin derivatives as potent antituberculosis agents” (2015)
